Results from patent US12384776B2, “Compounds and uses thereof” (Foghorn Therapeutics Inc., priority 2019, dated 2025).

What follows are compounds tested against Nanoluciferase-BRD9 fusion protein (3×FLAG-NLuc-BRD9) in SYO-1 cells (Homo sapiens (Human), UniProt Q9H8M2) (assay: SYO1 BRD9 NanoLuc degradation assay). Conditions: SYO-1 cells expressing 3×FLAG-NLuc-BRD9, 6 hours incubation, top dose 1 μM.
Assay type: cell-based
Outline: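 Stable SYO-1 line expressing 3×FLAG-NLuc-BRD9, treated with 10-point 3-fold dilutions (top 1 μM final) for 6 hours. Nanoluciferase luminescence read with Nano-Glo reagent. % inhibition relative to DMSO (high control) and 1 μM reference BRD9 degrader (low control).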

Sequence of Nanoluciferase-BRD9 fusion protein (3×FLAG-NLuc-BRD9) in SYO-1 cells (Q9H8M2 whole entry, the tested form may be a part): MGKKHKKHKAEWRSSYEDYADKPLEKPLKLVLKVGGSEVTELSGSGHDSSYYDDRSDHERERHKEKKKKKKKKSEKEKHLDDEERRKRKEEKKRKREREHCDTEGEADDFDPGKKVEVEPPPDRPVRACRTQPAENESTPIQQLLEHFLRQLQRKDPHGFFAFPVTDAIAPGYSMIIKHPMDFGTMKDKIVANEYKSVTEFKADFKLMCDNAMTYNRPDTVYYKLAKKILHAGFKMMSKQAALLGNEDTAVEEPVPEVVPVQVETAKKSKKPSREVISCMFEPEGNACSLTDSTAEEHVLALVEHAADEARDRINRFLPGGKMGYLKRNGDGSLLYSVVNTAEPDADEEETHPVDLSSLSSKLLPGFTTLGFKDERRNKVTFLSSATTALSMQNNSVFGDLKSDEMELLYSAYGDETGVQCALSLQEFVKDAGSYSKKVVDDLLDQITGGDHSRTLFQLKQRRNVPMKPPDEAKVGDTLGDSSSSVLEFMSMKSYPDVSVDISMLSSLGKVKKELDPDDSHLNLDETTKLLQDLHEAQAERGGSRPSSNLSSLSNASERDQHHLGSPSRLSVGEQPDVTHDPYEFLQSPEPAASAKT

| Structure (SMILES) | IC50 [nM] |
| --- | --- |
| COc1cc(-c2cn(C)c(=O)c3c2CCN(C(=O)NC2CC4(CCN(CCOc5ccc6c(c5)C(=O)N(C5CCC(=O)NC5=O)C6=O)CC4)C2)C3)cc(OC)c1CN(C)C (stereo not shown) [Compound D224] | < 10 |
| COc1cc(-c2cn(C)c(=O)c3c2CCN(C(=O)NCCCN2CCC(OC4CCN(c5ccc6c(c5)C(=O)N(C5CCC(=O)NC5=O)C6=O)CC4)CC2)C3)cc(OC)c1CN(C)C (stereo not shown) [Compound D223] | 10 to 100 |
| COc1cc(-c2cn(C)c(=O)c3c2CCN(C(=O)NCCN2CCC(OC4CCN(c5ccc6c(c5)C(=O)N(C5CCC(=O)NC5=O)C6=O)CC4)C2)C3)cc(OC)c1CN(C)C (stereo not shown) [Compound D204] | 100 to 1000 |
| CNC(=O)N1CCc2c(c(-c3cc(OC)c(CN4CC5CN(C(=O)CCOCCOc6ccc7c(c6)C(=O)N(C6CCC(=O)NC6=O)C7=O)CCC54)c(OC)c3)cn(C)c2=O)C1 (stereo not shown) [Compound D295] | 100 to 1000 |
| COc1cc(-c2cn(C)c(=O)c3c2CCN(C(=O)NCCCCCOc2cccc4c2C(=O)N(C2CCC(=O)NC2=O)C4=O)C3)cc(OC)c1CN1CCC1 (stereo not shown) [Compound D90] | 10 to 100 |
| COc1cc(-c2cn(C)c(=O)c3c2CCN(C(=O)NCCCCCCCCNc2cccc4c2CN(C2CCC(=O)NC2=O)C4=O)C3)cc(OC)c1CN1CCC1 (stereo not shown) [Compound D89] | < 10 |
| COc1cc(-c2cn(C)c(=O)c3c2CCN(C(=O)NCC2CC4(CCN(c5ccc6c(c5)C(=O)N(C5CCC(=O)NC5=O)C6=O)CC4)C2)C3)cc(OC)c1CN(C)C (stereo not shown) [Compound D110] | < 10 |
| CNC(=O)N1CCc2c(-c3cc(OC)c(CN4CCC(CCN5CCN(c6c(F)cc7c(c6F)C(=O)N(C6CCC(=O)NC6=O)C7=O)CC5)CC4)c(OC)c3)cn(C)c(=O)c2C1 (stereo not shown) [Compound D78] | < 10 |
| CNC(=S)N1CCc2c(-c3cc(OC)c(CN4CCC(CCN5CCN(c6ccc7c(c6)CN(C6CCC(=O)NC6=O)C7=O)CC5)CC4)c(OC)c3)cn(C)c(=O)c2C1 (stereo not shown) [Compound D58] | < 10 |
| CNC(=O)N1CCc2c(-c3cc(OC)c(CN4CCN(C5CCN(c6ccc7c(c6)C(=O)N(C6CCC(=O)NC6=O)C7=O)CC5)CC4)c(OC)c3)cn(C)c(=O)c2C1 (stereo not shown) [Compound D170] | < 10 |
| CNC(=O)N1CCc2c(-c3cc(OC)c(C(C)N4CC(CN5CCC6(CC5)CN(c5ccc7c(c5)C(=O)N(C5CCC(=O)NC5=O)C7)C6)C4)c(OC)c3)cn(C)c(=O)c2C1 (stereo not shown) [Compound D59] | 10 to 100 |
| CNC(=O)N1CCc2c(-c3cc(OC)c(C(C)N4CCC(CN5CCC6(CC5)CC(Oc5ccc7c(c5)C(=O)N(C5CCC(=O)NC5=O)C7=O)C6)CC4)c(OC)c3)cn(C)c(=O)c2C1 (stereo not shown) [Compound D106] | < 10 |
| COc1cc(-c2cn(C)c(=O)c3c2CCN(C(=O)NCC2CC4(CCN(CCOc5ccc6c(c5)C(=O)N(C5CCC(=O)NC5=O)C6=O)CC4)CO2)C3)cc(OC)c1CN(C)C (stereo not shown) [Compound D259] | 10 to 100 |
| CNC(=O)N1CCc2c(-c3cc(OC)c(CN4CC(S(=O)(=O)NCCN5CCN(c6ccc7c(c6)C(=O)N(C6CCC(=O)NC6=O)C7=O)CC5)C4)c(OC)c3)cn(C)c(=O)c2C1 (stereo not shown) [Compound D287] | 100 to 1000 |
| COc1cc(-c2cn(C)c(=O)c3c2CCN(C(=O)NCCN2CCC(OCC4CCN(c5ccc6c(c5)C(=O)N(C5CCC(=O)NC5=O)C6=O)CC4)C2)C3)cc(OC)c1CN(C)C (stereo not shown) [Compound D206] | 100 to 1000 |
| CNC(=O)N1CCc2c(-c3cc(OC)c(CN4CC5(CCN(C(C)(C)C#Cc6ccc7c(c6)C(=O)N(C6CCC(=O)NC6=O)C7=O)CC5)C4)c(OC)c3)cn(C)c(=O)c2C1 (stereo not shown) [Compound D126] | 100 to 1000 |
| CNC(=O)N1CCc2c(-c3cc(OC)c(CN4CCN(CC5CCN(c6ccc7c(c6)CN(C6CCC(=O)NC6=O)C7=O)CC5)CC4)c(OC)c3)cn(C)c(=O)c2C1 (stereo not shown) [Compound D39] | < 10 |
| CNC(=O)N1CCc2c(-c3cc(OC)c(CN4CCC5(CC4)CN(CCCN4CCN(c6ccc7c(c6)C(=O)N(C6CCC(=O)NC6=O)C7=O)CC4)CCO5)c(OC)c3)cn(C)c(=O)c2C1 (stereo not shown) [Compound D140] | < 10 |
| COc1cc(-c2cn(C)c(=O)c3c2CCN(C(=O)NCC2CC4(C2)CN(CCCCN2CCN(c5ccc6c(c5)C(=O)N(C5CCC(=O)NC5=O)C6=O)CC2)C4)C3)cc(OC)c1CN(C)C (stereo not shown) [Compound D219] | 100 to 1000 |
| COc1cc(-c2cn(C)c(=O)c3c2CCN(C(=O)NCCN2CCC4CCN(c5ccc6c(c5)C(=O)N(C5CCC(=O)NC5=O)C6=O)C4C2)C3)cc(OC)c1CN(C)C (stereo not shown) [Compound D188] | 100 to 1000 |
| COc1cc(-c2cn(C)c(=O)c3c2CCN(C(=O)NCC2CC4CN(c5ccc6c(c5)C(=O)N([C@H]5CCC(=O)NC5=O)C6=O)CC4C2)C3)cc(OC)c1CN(C)C (stereo partly shown) [Compound D122] | 10 to 100 |
| COc1cc(-c2cn(C)c(=O)c3c2CCN(C(=O)NC2C[C@@H]4CN(CCCCN5CCN(c6ccc7c(c6)C(=O)N(C6CCC(=O)NC6=O)C7=O)CC5)C[C@H]24)C3)cc(OC)c1CN(C)C (stereo partly shown) [Compound D247] | 100 to 1000 |
| CNC(=O)N1CCc2c(-c3cc(OC)c(CN4CC5(CC(N6Cc7cc8c(cc7C6)C(=O)N(C6CCC(=O)NC6=O)C8=O)C5)C4)c(OC)c3)cn(C)c(=O)c2C1 (stereo not shown) [Compound D177] | 10 to 100 |
| COc1cc(-c2cn(C)c(=O)c3c2CCN(C(=O)NC2CC2)C3)cc(OC)c1CN1CCC(CCN2CCN(c3ccc4c(c3)C(=O)N(C3CCC(=O)NC3=O)C4=O)CC2)CC1 (stereo not shown) [Compound D81] | < 10 |
| CNC(=O)N1CCc2c(-c3cc(OC)c(CN4CCN(CCC5CCN(c6ccc7c(c6)C(=O)N(C6CCC(=O)NC6=O)C7=O)CC5)C(C)C4)c(OC)c3)cn(C)c(=O)c2C1 (stereo not shown) [Compound D100] | < 10 |

Same assay, conditions: SYO-1 cells, 6 hours, Table 6A

| Structure (SMILES) | IC50 [nM] |
| --- | --- |
| COc1cc(-c2cn(C)c(=O)c3c2CCN(C(=O)NCCCCCNc2cccc4c2C(=O)N(C2CCC(=O)NC2=O)C4=O)C3)cc(OC)c1CN(C)C (stereo not shown) [Compound D11, 5-(4-((dimethylamino)methyl)-3,5-dimethoxyphenyl)-N-(5-((2-(2,6-dioxopiperidin-3-yl)-1,3-dioxoisoindolin-4-yl)amino)pentyl)-7-methyl-8-oxo-3,4,7,8-tetrahydro-2,7-naphthyridine-2 (1H)-carboxamide formic acid] | > 10 |

Same assay, conditions: SYO-1 cells, 6 hours, Table 6C

| Structure (SMILES) | IC50 [nM] |
| --- | --- |
| CNC(=O)N1CCc2c(-c3cc(OC)c(CN4CCC(CN5CCC6(CN(c7ccc8c(c7)CN(C7CCC(=O)NC7=O)C8=O)C6)C(F)(F)C5)CC4)c(OC)c3)cn(C)c(=O)c2C1 (stereo not shown) [Compound D339] | < 10 |
| COc1cc(-c2cn(C)c(=O)c3c2CCC(=O)N3)cc(OC)c1CN1CCC(CN2CCC3(CC2)CC(Oc2ccc4c(c2)CN(C2CCC(=O)NC2=O)C4=O)C3)CC1 (stereo not shown) [Compound D354] | < 10 |
| COc1cc(-c2cn(C)c(=O)c3c2CCC3)cc(OC)c1-c1ccc2c(c1)C(=O)N(C1CCC(=O)NC1=O)C2 (stereo not shown) [Compound D374] | < 10 |
| COc1cc(-c2cn(C)c(=O)c3c2COC3)cc(OC)c1CN1CC(C#Cc2ccc3c(c2)C(=O)N(C2CCC(=O)NC2=O)C3)C1 (stereo not shown) [Compound D367] | < 10 |
| CNC(=O)N1CCc2c(-c3cc(OC)c(CN4CCN(CCC5CCN(c6ccc7c(c6)CN(C6CCC(=O)NC6=O)C7=O)CC5)CC4COC)c(OC)c3)cn(C)c(=O)c2C1 (stereo not shown) [Compound D329] | < 10 |
| [2H]C([2H])([2H])NC(=O)N1CCc2c(-c3cc(OC)c(CN4CCN(CCC5CCN(c6ccc7c(c6)C(=O)N(C6CCC(=O)NC6=O)C7)CC5)CC4)c(OC)c3)cn(C)c(=O)c2C1 (stereo not shown) [Compound D341] | < 10 |
| COc1cc(-c2cn(C)c(=O)c3c2CCC3)cc(OC)c1CN1CC(C#Cc2ccc3c(c2)C(=O)N(C2CCC(=O)NC2=O)C3)C1 (stereo not shown) [Compound D365] | < 10 |
| COc1cc(-c2cn(C)c(=O)c3c2CCC3)cc(OC)c1CN1CC(Oc2ccc3c(c2)C(=O)N(C2CCC(=O)NC2=O)C3=O)C1 (stereo not shown) [Compound D362] | < 10 |
